Measured values reported in patent US9144556B2, “Composition for promoting lipolysis” (LION CORPORATION, priority 2011, dated 2015).

System: rat mesenteric adipocytes
Assay: Rate of promoting lipolysis (glycerol quantification in culture supernatant of rat mesenteric adipocytes)
Assay type: cell-based
Conditions: for Rate of promoting lipolysis of the combination compared with the value obtained by adding the rates of the single preparations (synergy): combined preparation versus sum of single preparations at corresponding concentration; for Rate of promoting lipolysis (combined preparation (+ lactoferrin 10 ppm)) / Rate of promoting lipolysis (combined preparation (+ lactoferrin 30 ppm)) / Rate of promoting lipolysis (single preparation): 48 hours, additive free group = 0%; for Rate of promoting lipolysis (single preparation): relative glycerol amount
Protocol: Promoting the breakdown of the fat by the composition for promoting the lipolysis of the present invention can be confirmed, for example, by conducting Examples. That is, a sample is added to a precursor adipocyte prepared from rat mesenteric tissue, and glycerol is quantified. A commercially available kit such as F-Kit Glycerol (supplied from Roche, product number: 14820) may be used for the quantification. When the amount of obtained glycerol is larger than the amount of glycerol when the sample was not added, it can be confirmed that the lipolysis was promoted.
Two SD rats (male, 10 weeks of age, Japan SLC, Inc.) were used. The rats were euthanized under anesthesia with ether and anatomized, and mesenteric adipose tissue was removed. The obtained tissue was placed in a sterilized petri dish, immersed in ice-cold saline (Otsuka Normal Saline, supplied from Otsuka Pharmaceutical Co., Ltd.) containing 1% antibiotic (Antibiotic-Antimycotic Stabilized, supplied from Sigma, A5955), and washed to remove blood and hairs, particularly lymphocytes (washed several times with different saline until no hair was visible). The tissue was cut using ophthalmic scissors (cut 25 times per 1 g of the tissue), and dispersed by stirring every several minutes in a PBS solution containing 1 mg/mL of collagenase (Collagenase S-1 derived from Actinomycetes, supplied from Nitta Gelatin Inc.) at 37° C. for 40 minutes. Roughly, the tissue from one rat was treated with 20 mL of the collagenase solution.
The tissue suspension was filtrated through a cell strainer with a pore size of 100 μm (REF352360 supplied from BD Falcon). Subsequently, a viscosity of the suspension was reduced by adding 20 mL of DMEM (Dulbecco's Modified Eagle's Medium-high glucose, D5796 supplied from Sigma), and then the suspension was centrifuged at 800 rpm for 10 minutes. An oil layer in an upper layer was removed using an aspirator, and then, the resulting suspension was resuspended and filtrated through a cell strainer with a pore size of 70 μm (REF352350 supplied from BD Falcon). After centrifuging at 800 rpm for 15 minutes, it was confirmed that there was no suspended cell in a supernatant, the presence of a pellet was confirmed, and then the supernatant was removed. The pellet was suspended in 5 mL of DMEM (serum free), the suspension was centrifuged at 800 rpm for 15 minutes, and then the supernatant was removed.
The resulting pellet was gently suspended in 5 mL of a medium for visceral adipocyte differentiation (Visceral Adipocyte Culture Medium, 250 mL, code: VACMR supplied from Primary Cell Co., Ltd.). The suspension was diluted to 10 times, and the number of cells was counted and was 1.015×10^7 cells/mL. 2.54×10^7 cells could be recovered from one rat. The cells suspended in the medium were placed so as to be at 6×10^6 cells/24-wells and 500 μL/well, and their cultivation was started. On the following day, 500 μL of the medium was added, and subsequently the medium was changed every third day. […]. On the 6th day after the start of the cultivation, the medium was changed to a medium containing each sample. A culture supernatant was collected 48 hours after adding the sample, and the cultivation was terminated. It was visually confirmed that there was no cytotoxicity in all of the cultivations.
A concentration of lactoferrin was adjusted to 30 ppm or 10 ppm, and lactoferrin at each concentration was used as the sample for evaluating the effect of lactoferrin alone (Comparative Experimental example 1). Each ingredient other than lactoferrin was used as the sample for evaluating the effect of a single preparation alone as follows. Lactoferrin and each ingredient other than lactoferrin were adjusted to the following concentrations and mixed to use as the sample for evaluating the effect of a combined preparation (Experimental Examples 1 to 9 and Comparative Experimental Examples 2 to 4). […]

[1] = ingredient 10 ppm + lactoferrin 10 ppm
[2] = ingredient 10 ppm + lactoferrin 30 ppm
[3] = ingredient 30 ppm + lactoferrin 10 ppm
[4] = ingredient 30 ppm + lactoferrin 30 ppm

| Compound | Rate of promoting lipolysis of the combination compared with the value obtained by adding the rates of the single preparations (synergy) | Rate of promoting lipolysis (combined preparation (+ lactoferrin 10 ppm)) [1] | Rate of promoting lipolysis (combined preparation (+ lactoferrin 30 ppm)) [2] | Rate of promoting lipolysis (single preparation) (ingredient 10 ppm alone) | Rate of promoting lipolysis (combined preparation (+ lactoferrin 10 ppm)) [3] | Rate of promoting lipolysis (combined preparation (+ lactoferrin 30 ppm)) [4] | Rate of promoting lipolysis (single preparation) (ingredient 30 ppm alone) | Rate of promoting lipolysis (combined preparation (+ lactoferrin 10 ppm)) (ingredient 10 ppm + lactoferrin 10 ppm, listed as raspberry ketone) | Rate of promoting lipolysis (single preparation) (ingredient 10 ppm alone, listed as raspberry ketone) |
| --- | --- | --- | --- | --- | --- | --- | --- | --- | --- |
| O=C(/C=C/c1ccc(O)c(O)c1)O[C@@H]1C[C@](O)(C(=O)O)C[C@@H](O)[C@H]1O [Chlorogenic acid, chlorogenic acid] | No prominently synergistic effect | 12% | 20% | 3% | 14% | 22% | 5% |  |  |
| O=C(O[C@@H]1Cc2c(O)cc(O)cc2O[C@@H]1c1cc(O)c(O)c(O)c1)c1cc(O)c(O)c(O)c1 [Epigallocatechin gallate, epigallocatechin gallate] | No prominently synergistic effect | 11% | 21% | −6% | 13% | 24% | 3% |  |  |
| CC(=O)CCc1ccc(O)cc1 [Raspberry ketone, 4-(4-hydroxyphenyl)-2-butanone] |  | 22% | 57% | −2% | 34% | 70% | 10% | more excellent effect of promoting the lipolysis than in the case of lactoferrin 10 ppm alone | rather inhibited the lipolysis |
| Lactoferrin |  |  |  | 12.1% |  |  | 21.3% |  |  |
